Data set [1] has as its target T1, human leukotriene B4 receptor (LTB4R) (Homo sapiens, UniProt Q15722).
T1 construct: host or cells: CHO mito-i-Photina cells
Nature of the data set: Human LTB4 receptor cell-based assay (CHO mito-i-Photina, flash luminescence). To be noted: antagonist mode. The text has this:
3. Human LTB4 Receptor Cell-Based Assay
CHO mito-i-Photina® cells (Axxam SpA) stably expressing the human leukotriene B4 receptor (LTB4R) were used for monitoring activation of the target LTB4R, a GPCR (Gαq), by measuring the flash luminescence of Ca^2+ sensitive photoprotein as reporter system with FLIPR^TETRA screening instrumentation (Molecular Devices) upgraded with an ICCD Camera (MDC). For data quality check and data analysis a Genedata Screener 10.0.3 was used, and for curve fitting of reference agonist and antagonist GraphPad Prism Software.
The reference agonist LTB4 and antagonist U-75302 were purchased from reputable commercial vendors and prepared according to each ligand's specifications. All handling of ligands were done to ensure proper control throughout the experiments.
The steps of the implemented workflow and data analysis are mainly as follows:
mito-1-Photina cells are seeded (10000 c/w in 384 MTP; in complete medium 25 μL/well) for 24 hours, removed from the incubator, equilibrated at room temperature for 1 h, freed from the growth medium, loaded with 30 μL/well of Tyrode's buffer containing 10 μM coelenterazine, and incubated for 3 hours at rt.
All compounds were tested at 10 μM with triplicate data points.
After incubation, the volume in all the wells is flattened to 20 μL by aspiration with CyBi®-Vario pipettor. The First Injection (10 μL of test compounds or reference antagonist U-75302 in Tyrode's buffer+DMSO 0.5%) is performed by the FLIPR^TETRA and the kinetic response is monitored over a period of 120 seconds. Incubation at rt for 10 min. is followed by the Second Injection (15 μL of LTB4 at EC80 in Tyrode's buffer) and monitoring of the kinetic response over a period of 120 seconds.
The possible kinetic response is divided into two distinct phases: Monitoring the kinetic response after the First Injection is indicated as Compound Addition (CA) and measures the agonistic activity of compounds; monitoring the kinetic response after the Second Injection is indicated as Target Activation (TA) and measures the antagonistic activity of a compound.
The activity determination (IC50 determination) experiment is performed using LTB4 as agonist (100 nM corresponding to EC80). Selected compound are tested in 8 doses intraplate dose response with quadruplicate data points.

Data set [2] is described as follows: Metabolic stability assay, human liver microsomes. Format: in vitro ADME. To be noted: human microsomes, 10 μM, 37° C. In short, it runs like this: (§1)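 Pooled human (50 donors, mixed gender) or CD-1 mouse microsomes at 1 mg/mL protein, 10 μM compound, 100 mM potassium phosphate with NADPH-regenerating system, 37 °C in duplicate. Samples at 0, 5, 10, 20, 60 min analysed by HPLC/MS/MS; turnover as % of 0-min value and T½ (min) calculated.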
(In general: Microsomes from liver hold many membrane-bound enzymes, among them those of drug oxidation.)

The nature of data set [3]: Metabolic stability assay, CD-1 mouse microsomes. The note with it: CD-1 mouse microsomes, 10 μM, 37° C. It is filed as in vitro ADME. In outline: as §1
A short description of data set [4]: Plasma stability assay, human plasma. Format: in vitro ADME. In short, it runs like this: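 Compounds at 10 μM were incubated at 37 °C in triplicate in sodium citrate-stabilized plasma (human, or pooled mixed-gender CD-1 mouse). Samples taken at 0–240 min were acetonitrile-quenched and analyzed by HPLC/MS/MS. Remaining peak area as % of t0 gave endpoint stability (%) and half-life (min).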

The target of data set [5] is T2, Oxytocin receptor (OT receptor) (Homo sapiens, UniProt P30559).
T2 construct: expressed in transfected cells; host or cells: Ca2+ optimized hematopoietic cell lines (rat)
T2 sequence (P30559 1-389): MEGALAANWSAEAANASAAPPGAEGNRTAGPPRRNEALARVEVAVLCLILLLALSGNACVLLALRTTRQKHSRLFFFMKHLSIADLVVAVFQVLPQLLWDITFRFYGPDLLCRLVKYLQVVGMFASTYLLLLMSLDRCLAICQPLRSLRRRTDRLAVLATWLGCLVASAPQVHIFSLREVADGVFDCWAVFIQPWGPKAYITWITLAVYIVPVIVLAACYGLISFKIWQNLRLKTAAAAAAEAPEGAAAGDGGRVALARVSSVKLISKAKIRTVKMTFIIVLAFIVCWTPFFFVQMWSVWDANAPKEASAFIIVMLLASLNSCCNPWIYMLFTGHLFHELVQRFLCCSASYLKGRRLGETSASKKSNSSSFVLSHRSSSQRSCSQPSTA
Nature of the data set: Ca2+ flux (FLIPR) assay, OT receptor, agonist/antagonist mode. It is filed as cell-based. To be noted: antagonist mode. How it is done: Biological and Pharmacological Methods 1. Ca^2+ Flux Assays for the GPCRs Oxytocin Receptor (OT Receptor), Thyrotropin-Releasing Hormone Receptor (TRH Receptor) and Bombesin Receptor Subtype 3 (BB3 Receptor)
Assays were performed on a FLIPR^TETRA fluorometric imaging plate reader (Molecular Devices) with ScreenWorks Version 2 (Molecular Devices) as device operating and data analysis software.
Dose dependent agonist and antagonist activities were determined. Percentage activation and percentage inhibition values were determined.
Percentage activation was determined upon initial addition of the sample compounds followed by 10 minutes' incubation at 25° C. Following compound incubation, reference agonists were added at EC80 to determine percentage inhibition.
Reference agonists were purchased from reputable commercial vendors and prepared according to each ligand's specifications. All handling of ligands were done to ensure proper control throughout the experiments.
Example compounds were weighed on a Microbalance (Mettler MX5) and dissolved in 100% DMSO to a final concentration of 2.5 mM and subsequently diluted into the assay buffer.
The assay buffer was a supplemented HBSS (Hank's Balanced Salt Solution). HBSS was supplemented with 20 mM HEPES (4-(2-hydroxyethyl)-piperazin-1-ethansulfonic acid) and 2.5 mM Probenecid (Sigma P8761).
GPCR assays were performed using Ca^2+ optimized hematopoietic cell lines (rat) with cultures never exceeding 90% confluency. Cells were harvested and seeded (from cultures at less than 90% confluency) at 50000 cells/well for a 96-well plate (12500 cells/well for 384). After seeding, the assay plates were incubated for 45 minutes at room temperature. After room temperature incubation, the assay plates were incubated at 37° C. 5% CO2 for 24 hours prior to assaying.
All GPCR assays were performed using Fluo-8 Ca^2+ dye.
Ca^2+ dye was prepared at 1× dye concentration in GPCR assay buffer. After 24 hours of incubation, cells were washed with GPCR assay buffer, and then Ca^2+-dye (100 μL/well) was added.
The plates were incubated for 90 minutes at 30° C. 5% CO2 prior to FLIPR assay.
Compound plates were prepared to add 50 μL/well during the agonist assay mode. During the FLIPR assay, 50 μL/well from the compound plate was diluted 3-fold into the existing 100 μL/well from the dye loading step. Therefore all compounds were prepared as 3× the final concentration desired in the assay.
After completion of the first single addition assay run, assay plate was removed from the FLIPR Tetra and placed at 25° C. for 7 minutes before antagonist assay.
Using the EC80 values determined during the agonist assay, all pre-incubated sample compound and reference antagonist (if applicable) wells were stimulated at the EC80 of the reference agonist. As reference ligands for these assays their obvious natural ligands oxytocin (OT), thyrotropin-releasing hormone (TRH) and bombesin (6-14) [BN(6-14)] were used.
After the addition of the reference agonist fluorescence was monitored for 180 sec using FLIPR Tetra.
From the FLIPR data, with negative control correction enabled, the maximum statistic for each well was exported and percentage activation relative to Emax control was calculated.
A general note: Calcium assays in cells follow changes in intracellular calcium, usually with a dye or a luminescent sensor.

For data set [6], the system named is S. pneumoniae DSM 20566 11A11, 3313A6, 704CG4B21, 82BERG72. Nature of the data set: Antimicrobial assay, broth microdilution MIC, S. pneumoniae strains. To be noted: Streptococcus pneumoniae, DSM20566; strain DSM 20566 (Table 32.7); read-out: MIC S. pneumoniae DSM 20566. Format: cell-based. How it is done: (§2) The antimicrobial activities of the compounds were determined in 96-well plates (Greiner, polystyrene) by the standard NCCLS broth microdilution method (National Committee for Clinical Laboratory Standards 1993. Methods for dilution antimicrobial susceptibility tests for bacteria that grow aerobically, 3rd ed. Approved standard M7-A6. National Committee for Clinical laboratory standards, Wayne, Pa.) with slight modifications. Inocula of the microorganisms were diluted into Mueller-Hinton II (MH, cation adjusted) broth+0.002% P-80 and compared with a 0.5 McFarland standard to give appr. 10^6 colony forming units (CFU)/mL. Aliquots (50 μl) of inoculate were added to 50 μl of MH broth+0.002% P-80 containing the compounds in serial two-fold dilutions. The following microorganisms were used to determine antibiotic selectivity of the compounds: S. pneumoniae DSM 20566 11A11, 3313A6, 704CG4B21, 82BERG72; S. aureus ATCC 29213, ATCC 25923, DSM 11729, DSM 46320, S. aureus 39. Antimicrobial activities of the compounds were expressed as the minimal inhibitory concentration (MIC) in μg/mL at which no visible growth was observed after 18-20 hours of incubation at 36° C.
(Broth dilution looks for growth in wells or tubes with falling amounts of substance.)

Data set [7] deals with S. aureus ATCC 29213, ATCC 25923, DSM 11729, DSM 46320, S. aureus 39. Nature of the data set: Antimicrobial assay, broth microdilution MIC, S. aureus strains. Format: cell-based. The note with it: Staphylococcus aureus. How it is done:
as §2

Values after ≈ are worked out from the molar mass of the structure shown. Read-outs that look alike come from different tables or passages of the source.

T1 sequence (Q15722 whole entry): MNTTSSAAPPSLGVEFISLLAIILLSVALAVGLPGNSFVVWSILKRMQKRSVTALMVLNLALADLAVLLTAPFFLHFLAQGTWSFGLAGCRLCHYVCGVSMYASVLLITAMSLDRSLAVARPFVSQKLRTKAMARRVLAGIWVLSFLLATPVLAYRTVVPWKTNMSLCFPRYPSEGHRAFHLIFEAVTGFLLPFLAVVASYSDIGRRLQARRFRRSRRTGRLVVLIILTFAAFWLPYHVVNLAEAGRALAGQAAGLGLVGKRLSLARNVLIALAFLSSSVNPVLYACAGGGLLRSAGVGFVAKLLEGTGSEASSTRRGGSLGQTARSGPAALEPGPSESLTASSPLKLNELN

With `COc1ccc2c(c1)-c1cccc(c1)C(=O)N(C)[C@H](C(=O)NCc1cccnc1)CCC(=O)N[C@H](C)CO2` [Ex. 50, (10R,15S)-4-methoxy-10,16-dimethyl-12,17-dioxo-N-(3-pyridinylmethyl)-8-oxa-11,16-diazatricyclo[16.3.1.0^2,7]docosa-1(22),2,4,6,18,20-hexaene-15-carboxamide], the IC50 in data set [1] was 1.97 µM. The compound further yielded an inhibition at 10 µM in data set [1] of 100%. The half-life at 10 μM is over 60 min in data set [2] (both sexes, liver microsomes, 1 mg/ml protein, read-out: Metabolic Stability T ½ [min] hum); 40 min in data set [3] (both sexes, 1 mg/ml protein, read-out: Metabolic Stability T ½ [min] mouse/(rat)); over 240 min in data set [4] (human, plasma). The “Metabolic Stability 60 min hum [% remain.]” value in data set [2] (60 min) is given as 53 % remain. The “Metabolic Stability 60 min mouse/(rat) [% remain.]” value in data set [3] (60 min) is on record as 34 % remain. Moreover, the “Plasma Stability 240 min hum [% remain.]” value in data set [4] (human plasma, 240 min, 10 μM, 37° C.) was 100 % remain.

Regarding `CC(=O)N[C@@H]1C[C@H]2COc3cccc(c3)-c3cncc(c3)C(=O)NCCN(Cc3cccc(F)c3)CC(=O)N2C1` [Ex. 100, N-[(9S,11R)-16-(3-fluorobenzyl)-14,20-dioxo-7-oxa-13,16,19,23-tetraazatetracyclo[19.3.1.1^2,6.0^9,13]hexacosa-1(25),2(26),3,5,21,23-hexaen-11-yl]acetamide], in data set [5], the IC50 was found to be 4.6 µM and the inhibition at 10 µM worked out at 57%.

In the case of `C[C@@H]1COc2cccc(c2)-c2ccccc2SCCCC[C@H](NC(=O)CN2CCCC2)C(=O)N1` [Ex. 119, N-[(13S,16R)-16-methyl-14-oxo-18-oxa-8-thia-15-azatricyclo[17.3.1.0^2,7]tricosa-1(23),2,4,6,19,21-hexaen-13-yl]-2-(1-pyrrolidinyl)acetamide], in data set [1], the midpoint of inhibition, the IC50, lay at 14.2 µM and 10 µM produced 47% inhibition.

In data set [1], `C[C@@H]1COc2ccccc2-c2cncc(c2)SCCCC[C@H](N)C(=O)N1` [Ex. 144, (10R,13S)-13-amino-10-methyl-8-oxa-18-thia-11,21-diazatricyclo[17.3.1.0^2,7]tricosa-1(23),2,4,6,19,21-hexaen-12-one] displayed an IC50 of 40.9 µM and an inhibition at 10 µM of 41%.

In data set [1], `O=C(N[C@@H]1CCNC(=O)c2ccccc2-c2cccc(c2)OC[C@@H]2C[C@H](NC(=O)Oc3ccccc3)CN2C1=O)OCc1ccccc1` [Ex. 14] showed an IC50 of 39.4 µM and an inhibition at 10 µM of 46%.

As for `CN1CCNC(=O)c2cncc(c2)-c2cccc(c2)OC[C@@H]2C[C@@H](NC(=O)OC(C)(C)C)CN2C(=O)C1` [Ex. 94, tert-butyl N-[(9S,11R)-16-methyl-14,20-dioxo-7-oxa-13,16,19,23-tetraazatetracyclo[19.3.1.1^2,6.0^9,13]hexacosa-1(25),2(26),3,5,21,23-hexaen-11-yl]carbamate], the IC50 in data set [5] was 3 µM. Also, testing at 10 µM in data set [5] gave an inhibition of 58%. Also, the MIC in data set [6] was over 16 µg/mL; in data set [7] (strain ATCC 25923, read-out: MIC S. aureus ATCC 25923), 8 µg/mL (≈ 15.7 µM); in data set [7] (strain ATCC 29213, read-out: MIC S. aureus ATCC 29213), 4 µg/mL (≈ 7.85 µM); in data set [7] (strain DSM 11729, read-out: MIC S. aureus DSM 11729), 4 µg/mL (≈ 7.85 µM); in data set [7] (strain DSM 46320, read-out: MIC S. aureus DSM 46320) it was 8 µg/mL (≈ 15.7 µM); in data set [7] (strain S. aureus 39, read-out: MIC S. aureus 39), 8 µg/mL (≈ 15.7 µM).

For `C[C@@H]1COc2cccc(c2)-c2ccccc2SCCCC[C@H](N)C(=O)N1` [Ex. 116, (13S,16R)-13-amino-16-methyl-18-oxa-8-thia-15-azatricyclo[17.3.1.0^2,7]tricosa-1(23),2,4,6,19,21-hexaen-14-one], in data set [1], the IC50 is 15.4 µM and the inhibition at 10 µM amounted to 49%.

By IC50 is commonly meant the concentration that inhibits the measured activity by half. For orientation: inhibition means the percentage by which the read-out fell short of the control. Low values mean a response near the control, high ones a response far below the control. For orientation: MIC means the lowest concentration found to suppress growth.

(Values after US10017481B2, “Conformationally constrained, fully synthetic macrocyclic compounds” (POLYPHOR AG, priority 2012, dated 2018).)
